pIC50: −log10 of the molar value.
Test system: 699152-130-R-J1-PDC complex spheroid growth
Experiment: Anticancer human tumor 699152-130-R-J1-PDC patient-derived pancreatic carcinoma cell line growth inhibition [AhR]
Details: for pIC50: curve of first compound; for viability, T/C: stronger effect = lower value; active means viability on the fitted dose curve at most 10% of control; inactive means the rest
In short: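 Complex tumor spheroids co-cultured with HUVEC and human MSC stroma; AhR antagonists tested in combination with standard-of-care and investigational agents. Top concentration at or near clinical Cmax (else 10 microM), half-log dilutions; growth expressed as percent test/control.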

[1] = second compound 0.1 µM, first compound 0.0316 µM
[2] = second compound 0.1 µM, first compound 0.1 µM
[3] = second compound 0.316 µM, first compound 0.0316 µM
[4] = second compound 0.316 µM, first compound 0.1 µM
[5] = second compound 1 µM, first compound 0.0316 µM
[6] = second compound 1 µM, first compound 0.1 µM
[7] = second compound 3.16 µM, first compound 0.0316 µM
[8] = second compound 3.16 µM, first compound 0.1 µM
[9] = second compound 10 µM, first compound 0.0316 µM
[10] = second compound 10 µM, first compound 0.1 µM
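Further: compound exposure lasted 7 days after spheroids had grown for 3 days.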

CC[C@@]1(O)C(=O)OCc2c1cc1n(c2=O)Cc2cc3c(CN(C)C)c(O)ccc3nc2-1 + CC(CO)NC(=O)c1cc(-c2ccc(Cl)cc2)nn(-c2cnn(C)c2)c1=O
< 7.00: pIC50 (second compound 0.1 µM) | pIC50 (second compound 0.316 µM) | pIC50 (second compound 1 µM) | pIC50 (second compound 3.16 µM) | pIC50 (second compound 10 µM)
inactive: viability, T/C (second compound 0.1 µM, first compound 0.000316 µM) 101% | viability, T/C (second compound 0.1 µM, first compound 0.001 µM) 102% | viability, T/C (second compound 0.1 µM, first compound 0.00316 µM) 112% | viability, T/C (second compound 0.1 µM, first compound 0.01 µM) 98.6% | viability, T/C [1] 86.7% | viability, T/C [2] 64.7% | viability, T/C (second compound 0.316 µM, first compound 0.000316 µM) 94.1% | viability, T/C (second compound 0.316 µM, first compound 0.001 µM) 107% | viability, T/C (second compound 0.316 µM, first compound 0.00316 µM) 93% | viability, T/C (second compound 0.316 µM, first compound 0.01 µM) 83.5% | viability, T/C [3] 76.3% | viability, T/C [4] 60.3% | viability, T/C (second compound 1 µM, first compound 0.000316 µM) 96.8% | viability, T/C (second compound 1 µM, first compound 0.001 µM) 108% | viability, T/C (second compound 1 µM, first compound 0.00316 µM) 92.5% | viability, T/C (second compound 1 µM, first compound 0.01 µM) 79.4% | viability, T/C [5] 83.6% | viability, T/C [6] 62.5% | viability, T/C (second compound 3.16 µM, first compound 0.000316 µM) 89.4% | viability, T/C (second compound 3.16 µM, first compound 0.001 µM) 102% | viability, T/C (second compound 3.16 µM, first compound 0.00316 µM) 93.7% | viability, T/C (second compound 3.16 µM, first compound 0.01 µM) 84% | viability, T/C [7] 71.8% | viability, T/C [8] 60.7% | viability, T/C (second compound 10 µM, first compound 0.000316 µM) 102% | viability, T/C (second compound 10 µM, first compound 0.001 µM) 103% | viability, T/C (second compound 10 µM, first compound 0.00316 µM) 86.3% | viability, T/C (second compound 10 µM, first compound 0.01 µM) 80.7% | viability, T/C [9] 72.3% | viability, T/C [10] 57%

COc1ccc([C@@H](O)c2cc(-c3ncnc4cc(N5CCOCC5)ccc34)c(F)cc2Cl)nn1 + Cc1ccccc1N=Nc1ccc(NC(=O)c2ccnn2C)c(C)c1
inactive: viability, T/C [1] 93.5% | viability, T/C [2] 108% | viability, T/C (second compound 0.1 µM, first compound 0.316 µM) 90% | viability, T/C (second compound 0.1 µM, first compound 1 µM) 81.4% | viability, T/C (second compound 0.1 µM, first compound 3.16 µM) 61.7% | viability, T/C (second compound 0.1 µM, first compound 10 µM) 30.5% | viability, T/C [3] 83.7% | viability, T/C [4] 91.8% | viability, T/C (second compound 0.316 µM, first compound 0.316 µM) 97.5% | viability, T/C (second compound 0.316 µM, first compound 1 µM) 80% | viability, T/C (second compound 0.316 µM, first compound 3.16 µM) 55.6% | viability, T/C (second compound 0.316 µM, first compound 10 µM) 32.3% | viability, T/C [5] 96.8% | viability, T/C [6] 91.8% | viability, T/C (second compound 1 µM, first compound 0.316 µM) 87.2% | viability, T/C (second compound 1 µM, first compound 1 µM) 79.5% | viability, T/C (second compound 1 µM, first compound 3.16 µM) 61.1% | viability, T/C (second compound 1 µM, first compound 10 µM) 35.6% | viability, T/C [7] 93.8% | viability, T/C [8] 98.4% | viability, T/C (second compound 3.16 µM, first compound 0.316 µM) 90% | viability, T/C (second compound 3.16 µM, first compound 1 µM) 86.5% | viability, T/C (second compound 3.16 µM, first compound 3.16 µM) 61.9% | viability, T/C (second compound 3.16 µM, first compound 10 µM) 35.3% | viability, T/C [9] 107% | viability, T/C [10] 111% | viability, T/C (second compound 10 µM, first compound 0.316 µM) 110% | viability, T/C (second compound 10 µM, first compound 1 µM) 94.5% | viability, T/C (second compound 10 µM, first compound 3.16 µM) 61% | viability, T/C (second compound 10 µM, first compound 10 µM) 31.1%
5.28: pIC50 (second compound 1 µM)
5.27: pIC50 (second compound 3.16 µM)
5.32: pIC50 (second compound 0.1 µM) | pIC50 (second compound 10 µM)
5.39: pIC50 (second compound 0.316 µM)
